Assay results published in ChEMBL document CHEMBL1201862, “PubChem BioAssay data set” (2004).
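Briefly, cells in 96-well plates were exposed to five compound concentrations for 48 h, and endpoints were estimated by linear interpolation. GI50 = concentration required for 50% inhibition of growth.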 Activity calls are given as the source filed them. Cut-off read from the data, not from the text of the source: active = GI50 up to about 1.1 µM and inactive = higher.

Columns and labels:
Assay in all cases: NCI-60 cell line screen, 48 h
MDA-MB-435 = system: MDA-MB-435
MCF7 = system: MCF7
K562 = system: K562
HCT-15 = system: HCT-15
OVCAR-5 = system: OVCAR-5
MOLT-4 = system: MOLT-4
SW-620 = system: SW-620
SK-MEL-2 = system: SK-MEL-2
A498 = system: A498
OVCAR-4 = system: OVCAR-4
SF-539 = system: SF-539
UACC-257 = system: UACC-257
786-0 = system: 786-0
MDA-MB-231 = system: MDA-MB-231
NCI/ADR-RES = system: NCI/ADR-RES
MDA-N = system: MDA-N
NCI-H460 = system: NCI-H460
RPMI-8226 = system: RPMI-8226
NCI-H23 = system: NCI-H23
Hs-578T = system: Hs-578T

Row | Structure (SMILES) | GI50 (MDA-MB-435) | GI50 (MCF7) | GI50 (K562) | GI50 (HCT-15) [µM] | GI50 (OVCAR-5) | GI50 (MOLT-4) | GI50 (SW-620) | GI50 (SK-MEL-2) | GI50 (A498) | GI50 (OVCAR-4) | GI50 (SF-539) | GI50 (UACC-257) | GI50 (786-0) | GI50 (MDA-MB-231) | GI50 (NCI/ADR-RES) | GI50 (MDA-N) | GI50 (NCI-H460) | GI50 (RPMI-8226) | GI50 (NCI-H23) | GI50 (Hs-578T)
1 | O=c1[nH]c(=O)n(COCCO)c2ccc(Br)cc12 | > 100 µM (inactive) | > 100 µM (inactive) | > 100 µM (inactive) | 45.9 | > 100 µM (inactive) | > 100 µM (inactive) | > 100 µM (inactive) | > 100 µM (inactive) | > 100 µM (inactive) | > 100 µM (inactive) | > 100 µM (inactive) | > 100 µM (inactive) | > 100 µM (inactive) | > 100 µM (inactive) | > 100 µM (inactive) | > 100 µM (inactive) | > 100 µM (inactive) |  |  | 
2 | CCN(CC)CCNC(=O)c1cc2cc(NC(=O)c3cc4cc([N+](=O)[O-])ccc4[nH]3)ccc2[nH]1 | 37.5 µM (inactive) | 2.39 µM (inactive) | 1.61 µM (inactive) | > 100 | 69.7 µM (inactive) | 13 µM (inactive) | 6.11 µM (inactive) | > 52.6 µM (inactive) | 27 µM (inactive) | > 50.4 µM (inactive) | 6.43 µM (inactive) | 29.4 µM (inactive) | 2.25 µM (inactive) | 3.83 µM (inactive) | > 100 µM (inactive) | 52.8 µM (inactive) | 2.92 µM (inactive) | 1.82 µM (inactive) | 8.49 µM (inactive) | 
3 | O=C1/C(=C/c2ccc(Br)s2)NC(=S)N1c1ccccc1 | 86.3 µM (inactive) | 34.5 µM (inactive) | 56.8 µM (inactive) | 80.5 | > 100 µM (inactive) | > 100 µM (inactive) | > 100 µM (inactive) | > 100 µM (inactive) | 51.1 µM (inactive) | 27 µM (inactive) |  | 65.6 µM (inactive) | 40.8 µM (inactive) | 34.3 µM (inactive) |  | > 100 µM (inactive) | 51.5 µM (inactive) | 22.5 µM (inactive) | > 100 µM (inactive) | 38.6 µM (inactive)
4 | CCC[C@@H](O)C[C@@H]1CCC[C@H](C[C@@H](O)CC)N1C | > 100 µM (inactive) | > 100 µM (inactive) | > 100 µM (inactive) | > 100 | > 100 µM (inactive) | > 100 µM (inactive) | > 100 µM (inactive) | > 100 µM (inactive) | > 100 µM (inactive) | > 100 µM (inactive) | > 100 µM (inactive) | > 100 µM (inactive) | > 100 µM (inactive) | > 100 µM (inactive) | > 100 µM (inactive) | > 100 µM (inactive) |  | > 100 µM (inactive) | > 100 µM (inactive) | 
5 | c1ccc2c(c1)CCc1c-2n(CCN2CCCCC2)c2ccccc12 | 25.4 µM (inactive) | 15.2 µM (inactive) | 9.75 µM (inactive) | 10.6 | 15.5 µM (inactive) | 13.9 µM (inactive) | 20.8 µM (inactive) | 16.3 µM (inactive) |  | 18.8 µM (inactive) | 12.9 µM (inactive) | 17.2 µM (inactive) | 16.3 µM (inactive) | 13.2 µM (inactive) | 16.8 µM (inactive) |  | 15.6 µM (inactive) | 10.3 µM (inactive) | 17.7 µM (inactive) | 18.2 µM (inactive)
6 | COc1ccc(Oc2nc3ccc(C(F)(F)F)cc3nc2-c2ccccc2)cc1 | > 100 µM (inactive) | 65.5 µM (inactive) | 87.9 µM (inactive) | > 100 | > 100 µM (inactive) | 62.4 µM (inactive) | > 100 µM (inactive) | > 100 µM (inactive) | > 100 µM (inactive) | > 100 µM (inactive) |  | > 100 µM (inactive) | > 100 µM (inactive) | > 100 µM (inactive) |  |  | > 100 µM (inactive) | 7.23 µM (inactive) | 1.13 µM (inactive) | > 100 µM (inactive)
7 | COc1ccc(-n2c(=O)n(-c3ccccc3)c(=O)n2-c2ccc(OC)cc2)cc1 | > 100 µM (inactive) | > 100 µM (inactive) | 80.4 µM (inactive) | > 100 | > 100 µM (inactive) | > 100 µM (inactive) | > 100 µM (inactive) | > 100 µM (inactive) | > 100 µM (inactive) | > 100 µM (inactive) | > 100 µM (inactive) | > 100 µM (inactive) | > 100 µM (inactive) | > 100 µM (inactive) | > 100 µM (inactive) | > 100 µM (inactive) |  | > 100 µM (inactive) | > 100 µM (inactive) | 
8 | CC(=O)NC(CCCCNC(=O)N(C)N=O)C(=O)NCc1ccccc1 (stereo not given) |  |  | > 100 µM (inactive) | > 100 | > 100 µM (inactive) | > 100 µM (inactive) | > 100 µM (inactive) | > 100 µM (inactive) | > 100 µM (inactive) | > 100 µM (inactive) | > 100 µM (inactive) | > 100 µM (inactive) | > 100 µM (inactive) |  |  |  | 79.6 µM (inactive) | > 100 µM (inactive) | > 100 µM (inactive) | 
9 | O=c1ncccn1[C@@H]1O[C@H](CO)[C@H](O)C1O (stereo not given in full) |  |  | 52.4 µM (inactive) | > 93.1 | > 100 µM (inactive) | 61.7 µM (inactive) | > 100 µM (inactive) | > 73.5 µM (inactive) | > 100 µM (inactive) | > 100 µM (inactive) | > 75.3 µM (inactive) | > 100 µM (inactive) | > 78 µM (inactive) |  |  |  | 47.9 µM (inactive) | > 74.5 µM (inactive) | > 100 µM (inactive) | 
10 | CCOC(=O)CCC(NC(=O)c1ccc(CNc2nc3cc(N)cc(N)c3nc2-c2ccccc2)cc1)C(=O)OCC (stereo not given) | 43.1 µM (inactive) | > 87.3 µM (inactive) | 15.3 µM (inactive) | > 69.5 | > 100 µM (inactive) | 1.45 µM (inactive) | > 100 µM (inactive) | 28.8 µM (inactive) | > 100 µM (inactive) | 17.4 µM (inactive) | > 100 µM (inactive) | 19 µM (inactive) | > 100 µM (inactive) | 22.3 µM (inactive) | > 100 µM (inactive) |  | 34 µM (inactive) |  | > 67.6 µM (inactive) | > 84.5 µM (inactive)
11 | COC(=O)C(Cc1nc2ccc(Cl)cc2nc1O)C(=O)C(=O)Nc1cc(C)ccc1C (stereo not given) |  |  | > 100 µM (inactive) | > 100 | > 100 µM (inactive) | > 100 µM (inactive) | > 100 µM (inactive) | > 100 µM (inactive) | > 100 µM (inactive) | > 100 µM (inactive) | > 100 µM (inactive) | > 100 µM (inactive) | > 100 µM (inactive) |  |  |  | > 100 µM (inactive) | > 100 µM (inactive) | > 100 µM (inactive) | 
12 | Cn1ncc2c(NCc3ccccc3)ncnc21 | > 100 µM (inactive) | > 100 µM (inactive) | > 100 µM (inactive) | > 100 | > 100 µM (inactive) | > 100 µM (inactive) | > 100 µM (inactive) |  | > 100 µM (inactive) | > 100 µM (inactive) | > 100 µM (inactive) | > 100 µM (inactive) | > 100 µM (inactive) | > 100 µM (inactive) | > 100 µM (inactive) | > 100 µM (inactive) | > 100 µM (inactive) | > 100 µM (inactive) | > 100 µM (inactive) | 
13 | CC(=O)OCC1OC(n2c(-c3ccccc3)c(C(C)=O)c(-c3ccc(Cl)cc3)c(C#N)c2=S)C(OC(C)=O)C(OC(C)=O)C1OC(C)=O (stereo not given) | > 100 µM (inactive) | > 100 µM (inactive) | > 100 µM (inactive) | 11.6 | > 100 µM (inactive) | > 100 µM (inactive) | > 100 µM (inactive) | < 0.01 µM (active) | > 100 µM (inactive) | 83.8 µM (inactive) | > 100 µM (inactive) | > 100 µM (inactive) | > 100 µM (inactive) | 70.3 µM (inactive) | > 100 µM (inactive) | 62.8 µM (inactive) | 26.8 µM (inactive) |  | > 100 µM (inactive) | 
14 | N#CCC(=O)NC1C2CC3CC(C2)CC1C3 (stereo not given) |  |  | 26.5 µM (inactive) | 17.2 | 22.1 µM (inactive) | 34 µM (inactive) | 25.4 µM (inactive) | 19.5 µM (inactive) | 16.5 µM (inactive) | 21.2 µM (inactive) | 18 µM (inactive) | 20.9 µM (inactive) | 19.5 µM (inactive) |  |  |  | 16.7 µM (inactive) | 34.6 µM (inactive) | 16.6 µM (inactive) | 
15 | OC(CCN1CCCCC1)(c1ccccc1)c1ccccc1 [PRIDINOL] | 82.8 µM (inactive) | > 100 µM (inactive) | > 100 µM (inactive) | > 100 | > 100 µM (inactive) | > 100 µM (inactive) | > 100 µM (inactive) | > 100 µM (inactive) | > 100 µM (inactive) |  |  |  | > 100 µM (inactive) | > 100 µM (inactive) | > 100 µM (inactive) | > 100 µM (inactive) |  | 87.1 µM (inactive) | > 100 µM (inactive) | 
16 | CCOC(=O)C(Oc1ccc(OC)c2c1C(=O)CCC2)c1ccccc1 (stereo not given) |  |  | 49.2 µM (inactive) | > 100 | > 100 µM (inactive) | 33.7 µM (inactive) | > 100 µM (inactive) | > 100 µM (inactive) | > 100 µM (inactive) | 48.9 µM (inactive) | > 100 µM (inactive) | > 100 µM (inactive) | > 100 µM (inactive) |  |  |  | > 100 µM (inactive) | 45.9 µM (inactive) | 25.5 µM (inactive) | 
17 | N#C/C(=C/NC(=S)Nc1ccc(S(N)(=O)=O)cc1)C(N)=O | > 100 µM (inactive) | > 100 µM (inactive) |  | > 100 | > 100 µM (inactive) | > 100 µM (inactive) | > 100 µM (inactive) |  | > 100 µM (inactive) | > 100 µM (inactive) | > 100 µM (inactive) | > 100 µM (inactive) | > 100 µM (inactive) |  |  | > 100 µM (inactive) | > 100 µM (inactive) | > 100 µM (inactive) | > 100 µM (inactive) | > 100 µM (inactive)
